From patent US20240376097A1, “BCL-2 Inhibitor” (BeiGene Ltd., priority 2020, published 2024) come the findings set out here.

Structures are written as SMILES. Where two headings read alike, the source gives them in different places.

Test [1] concerns the target Recombinant human Bcl-2 protein (Homo sapiens (Human), UniProt P10415). As to the kind of experiment: Bcl-2 TR-FRET Assay. Format: binding. In a few lines:
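0.05 nM Bcl-2 pre-incubated 0.5 h at room temperature with 10-point compound dilutions (top final 1, 0.1, 0.02 or 0.01 uM) in 20 mM potassium phosphate pH 7.5, 50 mM NaCl, 1 mM EDTA, 0.05% Tween-20, 0.01% BSA; FITC-Bak peptide (0.5 nM) and anti-6His Tb cryptate added, 1 h. IC50 from four-parameter logistic fit.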
(In general: Time-resolved FRET reads energy transfer from a long-lived donor to a nearby acceptor.)

The subject of test [2] is BCL-2 G101V knock-in cell line H96 (derive from RS4;11). Description: Bcl 2-G101V Knock-In RS4;11 Cell Proliferation Assay. The class given is cell-based. The following applies: Homo sapiens, RS4;11 Bcl-2 G101V knock-in clone H96, 48 hrs, CellTiter-GLO, read-out: Cellular proliferation assay (IC50, nM) RS4. In a few lines:
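H96, a CRISPR-generated RS4;11 clone carrying BCL2-G101V knock-in (WES/RNA-seq validated), seeded 50,000 per well and exposed 48 h at 37 °C to 10-point dilutions topping at 1 or 10 μM. Viability by CellTiter-Glo luminescence; mean IC50.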

The subject of test [3] is RS4;11 (BCL-2 dependent acute lymphoblastic leukemia cell line). Description: RS4;11 Cell Proliferation Assay. The conditions noted are these: Homo sapiens, RS4-11, RS4;11 cells, read-out: Cellular proliferation assay (IC50, nM) RS4. Format: cell-based. The method, boiled down: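 RS4;11 cells, 50,000 per well in RPMI-1640 with 10% FBS, treated 48 h at 37 °C with a 10-point dilution series topping at 1 μM. Viability read by CellTiter-Glo ATP luminescence; mean IC50 reported.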

The target in test [4] is recombinant human Bcl-2 D103Y protein (Homo sapiens (Human), UniProt P10415, D103Y). As to the kind of experiment: Bcl-2-D103Y Biochemical Assay (TR-FRET). The following applies: for IC50: TR-FRET, FITC labeled Bak peptide; for Ratio of Bcl-2 D103Y/Bcl-2 WT: ratio of IC50. Format: binding. The method, boiled down: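 Recombinant human Bcl-2 D103Y binding to its ligand measured by TR-FRET (ex 337 nm, em 490/520 nm) with increasing compound concentrations. Percent inhibition from the 490/520 nm ratio; IC50 from four-parameter logistic fit.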

For test [5], the target named is recombinant human Bcl-2-G101V protein (Homo sapiens (Human), UniProt P10415, G101V). Description: Bcl-2-G101V TR-FRET Assay. Format: binding. The following applies: Bcl-2 G101V mutant, TR-FRET; read-out: Biochemical assay (IC50, nM) Bcl-2 G101V. In a few lines:
(§1)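 Measures how compounds block Bcl-2-G101V engaging its ligand, by TR-FRET with 337 nm excitation and a 490/520 nm emission ratio; dose-response data give IC50 via a four-parameter logistic model.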

Test [6] has as its system recombinant human Bcl-2-G101V protein. As to the kind of experiment: Bcl-2-G101V TR-FRET Assay. The conditions noted are these: ratio of biochemical IC50 Bcl-2 G101V / Bcl-2 WT. The class given is binding. In a few lines:
as §1

Where [7] appears, read: Bcl-2 wild type, TR-FRET, read-out: Biochemical assay (IC50, nM) Bcl-2 WT.
The mark [8] stands for this setting: wild type Bcl-2, unit inferred, read-out: Bcl-2 WT.

As to `[2H]C([2H])([2H])Oc1ccc(CN2CCN(C3CC4(C3)CN(c3ccc(C(=O)NS(=O)(=O)c5ccc(NC[C@H]6CC[C@](C)(O)CC6)c([N+](=O)[O-])c5)c(Oc5cnc6[nH]cc(F)c6c5)c3)C4)[C@H](c3ccccc3C(C)C)C2)cc1` [Example 218, 2-((3-fluoro-1H-pyrrolo[2,3-b]pyridin-5-yl)oxy)-N-((4-((((1r,4r)-4-hydroxy-4-methylcyclohexyl)methyl)amino)-3-nitrophenyl)sulfonyl)-4-(6-((R)-2-(2-isopropylphenyl)-4-(4-(methoxy-d3)benzyl)piperazin-1-yl)-2-azaspiro[3.3]heptan-2-yl) benzamide], the IC50 worked out at 0.1 nM in test [1] (setting [7]); 0.1 nM in test [1] (setting [8]); 0.29 nM in test [2]; 0.12 nM in test [3]; 0.11 nM in test [4]; 0.25 nM in test [5]. Also, the “Ratio of Bcl-2 D103Y/Bcl-2 WT” value in test [4] came out at 1.0. For the same compound, in test [6], the “Ratio of Bcl-2 G101V/WT” value is 2.5.

On to `COc1ccc(CN2CCN(C3CC4(CCN(c5ccc(C(=O)NS(=O)(=O)c6ccc(NCC7(F)CCC(C)(O)CC7)c([N+](=O)[O-])c6)c(Oc6cnc7[nH]ccc7c6)c5)CC4)C3)[C@H](c3ccccc3C(C)C)C2)cc1` (stereo partly drawn) [Example 225, (R)-2-((1H-pyrrolo[2,3-b]pyridin-5-yl)oxy)-N-((4-(((1-fluoro-4-hydroxy-4-methylcyclohexyl)methyl)amino)-3-nitrophenyl)sulfonyl)-4-(2-(2-(2-isopropylphenyl)-4-(4-methoxybenzyl)piperazin-1-yl)-7-azaspiro[3.5]nonan-7-yl) benzamide], for which the IC50 in test [1] (setting [7]) is 0.092 nM; in test [1] (setting [8]), 0.092 nM; in test [2], 0.65 nM; in test [3], 0.13 nM; in test [4], 0.1 nM; in test [5], 0.37 nM. For the same compound, the “Ratio of Bcl-2 D103Y/Bcl-2 WT” value in test [4] is given as 1.1. The “Ratio of Bcl-2 G101V/WT” value in test [6] was 4.

In the case of `CC(C)c1ccccc1[C@@H]1CN(Cc2ccc(F)c(F)c2)CCN1C1CC2(C1)CN(c1ccc(C(=O)NS(=O)(=O)c3ccc(NC[C@H]4CC[C@](C)(O)CC4)c([N+](=O)[O-])c3)c(Oc3cnc4[nH]cc(F)c4c3)c1)C2` [Example 229, 4-(6-((R)-4-(3,4-difluorobenzyl)-2-(2-isopropylphenyl)piperazin-1-yl)-2-azaspiro[3.3]heptan-2-yl)-2-((3-fluoro-1H-pyrrolo[2,3-b]pyridin-5-yl)oxy)-N-((4-((((1r,4r)-4-hydroxy-4-methylcyclohexyl)methyl)amino)-3-nitrophenyl)sulfonyl) benzamide], the IC50 was found to be 0.38 nM in test [1] (setting [7]); 0.38 nM in test [1] (setting [8]); 0.53 nM in test [2]; 0.12 nM in test [3]; 0.45 nM in test [4]; 0.96 nM in test [5]. Also, in test [4], the “Ratio of Bcl-2 D103Y/Bcl-2 WT” value worked out at 1.2. The “Ratio of Bcl-2 G101V/WT” value in test [6] is on record as 2.5.

With `COc1cc(CN2CCN(C3CC4(C3)CN(c3ccc(C(=O)NS(=O)(=O)c5ccc(NC[C@H]6CC[C@](C)(O)CC6)c([N+](=O)[O-])c5)c(Oc5cnc6[nH]cc(F)c6c5)c3)C4)[C@H](c3ccccc3C(C)C)C2)cc(C)c1OC` [Example 231, 4-(6-((R)-4-(3,4-dimethoxy-5-methylbenzyl)-2-(2-isopropylphenyl)piperazin-1-yl)-2-azaspiro[3.3]heptan-2-yl)-2-((3-fluoro-1H-pyrrolo[2,3-b]pyridin-5-yl)oxy)-N-((4-((((1r,4r)-4-hydroxy-4-methylcyclohexyl)methyl)amino)-3-nitrophenyl)sulfonyl) benzamide], the IC50 came out at 0.27 nM in test [1] (setting [7]); 0.27 nM in test [1] (setting [8]); 0.38 nM in test [2]; 0.12 nM in test [3]; 0.45 nM in test [4]; 0.35 nM in test [5]. Further, the “Ratio of Bcl-2 D103Y/Bcl-2 WT” value in test [4] is 1.7. Further, the “Ratio of Bcl-2 G101V/WT” value in test [6] was 1.3.

With `COc1ccc(CN2CCN(C3CC4(CCN(c5ccc(C(=O)NS(=O)(=O)c6ccc(OCC7CCC(C)(O)CC7)c([N+](=O)[O-])c6)c(Oc6cnc7[nH]ccc7c6)c5)CC4)C3)[C@H](c3ccccc3C(C)C)C2)cc1` (stereo partly drawn) [Example 236, (R)-2-((1H-pyrrolo[2,3-b]pyridin-5-yl)oxy)-N-((4-((4-hydroxy-4-methylcyclohexyl)methoxy)-3-nitrophenyl)sulfonyl)-4-(2-(2-(2-isopropylphenyl)-4-(4-methoxybenzyl)piperazin-1-yl)-7-azaspiro[3.5]nonan-7-yl)benzamide], the IC50 in test [1] (setting [7]) is 0.16 nM; in test [1] (setting [8]), 0.16 nM; in test [2], 0.8 nM; in test [3] it was 0.16 nM; in test [4], 0.22 nM; in test [5], 0.56 nM. The “Ratio of Bcl-2 D103Y/Bcl-2 WT” value in test [4] is listed as 1.3. For the same compound, the “Ratio of Bcl-2 G101V/WT” value in test [6] was determined as 3.5.

Turning to `COc1cc(CN2CCN(C3CC4(CCN(c5ccc(C(=O)NS(=O)(=O)c6ccc(NC[C@H]7CC[C@](C)(O)CC7)c([N+](=O)[O-])c6)c(Oc6cnc7[nH]ccc7c6)c5)CC4)C3)[C@H](c3ccccc3C(C)C)C2)cc2c1OCC2` [Example 239, 2-((1H-pyrrolo[2,3-b]pyridin-5-yl)oxy)-N-((4-((((1r,4r)-4-hydroxy-4-methylcyclohexyl)methyl)amino)-3-nitrophenyl)sulfonyl)-4-(2-((R)-2-(2-isopropylphenyl)-4-((7-methoxy-2,3-dihydrobenzofuran-5-yl)methyl)piperazin-1-yl)-7-azaspiro[3.5]nonan-7-yl)benzamide], the IC50 in test [1] (setting [7]) is 0.076 nM; in test [1] (setting [8]) it was 0.076 nM; in test [2] it was 0.29 nM; in test [3], 0.12 nM; in test [4], 0.12 nM; in test [5] it was 0.2 nM. Also, the “Ratio of Bcl-2 D103Y/Bcl-2 WT” value in test [4] amounted to 1.5. For the same compound, the “Ratio of Bcl-2 G101V/WT” value in test [6] came to 2.6.

For the compound `COc1ccc(CN2CCN(C3CC4(C3)CN(c3ccc(C(=O)NS(=O)(=O)c5ccc(NC[C@H]6CC[C@](C)(O)CC6)c([N+](=O)[O-])c5)c(Oc5cnc6[nH]cc(F)c6c5)c3)C4)[C@H](c3ccccc3C(C)C)C2)nc1` [Example 241, 2-((3-fluoro-1H-pyrrolo[2,3-b]pyridin-5-yl)oxy)-N-((4-((((1r,4r)-4-hydroxy-4-methylcyclohexyl)methyl)amino)-3-nitrophenyl)sulfonyl)-4-(6-((R)-2-(2-isopropylphenyl)-4-((5-methoxypyridin-2-yl)methyl)piperazin-1-yl)-2-azaspiro[3.3]heptan-2-yl)benzamide], the IC50 was determined as 0.035 nM in test [1] (setting [7]); 0.035 nM in test [1] (setting [8]); 0.32 nM in test [2]; 0.15 nM in test [3]; 0.047 nM in test [4]; 0.096 nM in test [5]. Further, the “Ratio of Bcl-2 D103Y/Bcl-2 WT” value in test [4] amounted to 1.3. The “Ratio of Bcl-2 G101V/WT” value in test [6] is on record as 2.7.

Consider `COc1cc(CN2CCN(C3CC4(C3)CN(c3ccc(C(=O)NS(=O)(=O)c5ccc(NC[C@H]6CC[C@](C)(O)CC6)c([N+](=O)[O-])c5)c(Oc5cnc6[nH]ccc6c5)c3)C4)[C@H](c3ccccc3C(C)C)C2)cnc1OC` [Example 242, 2-((1H-pyrrolo[2,3-b]pyridin-5-yl)oxy)-4-(6-((R)-4-((5,6-dimethoxypyridin-3-yl)methyl)-2-(2-isopropylphenyl)piperazin-1-yl)-2-azaspiro[3.3]heptan-2-yl)-N-((4-((((1r,4r)-4-hydroxy-4-methylcyclohexyl)methyl)amino)-3-nitrophenyl)sulfonyl)benzamide], for which the IC50 was 0.03 nM in test [1] (setting [7]); 0.03 nM in test [1] (setting [8]); 0.28 nM in test [2]; 0.17 nM in test [3]; 0.033 nM in test [4]; 0.077 nM in test [5]. Also, the “Ratio of Bcl-2 D103Y/Bcl-2 WT” value in test [4] was determined as 1.1. In addition, the “Ratio of Bcl-2 G101V/WT” value in test [6] was 2.6.
